Broadly, the inhibition is the drop in the measured response relative to a control, in per cent. Lower therefore signals little suppression.

This test deals with γ-secretase (Homo sapiens, UniProt P49768). Nature of the test: Screening for γ-secretase-modulating activity in SKNBE2 cells carrying APP 695 wild type (assay of Citron et al 1997). The class given is cell-based. The settings on record: SKNBE2, @ 1 uM; SKNBE2 cells carrying the APP 695 wild type. How it is done: Screening was carried out using SKNBE2 cells carrying the APP 695—wild type, grown in DMEM/NUT-mix F12 (HAM) provided by Gibco (cat no. 31330-38) containing 5% Serum/Fe supplemented with 1% non-essential amino acids. Cells were grown to near confluency. The screening was performed using the assay as described in Citron et al (1997) Nature Medicine 3: 67.
`CN1C(c2cc(CC(=O)O)cc(-c3ccc(C(F)(F)F)cc3)c2)CCCC1C(F)(F)F` (stereo not drawn) [Example 11, [5-(1-Methyl-6-trifluoromethyl-piperidin-2-yl)-4′-trifluoromethyl-biphenyl-3-yl]-acetic acid] registered an inhibition at 1 µM of 23%.

For the compound `CC(C)CC(C(=O)O)c1cc(-c2ccc(C(F)(F)F)cc2)cc(C2CCN(Cc3ccc(C(F)(F)F)cc3)CC2)c1` (stereo not drawn) [Example 78, 4-Methyl-2-{4′-trifluoromethyl-5-[1-(4-trifluoromethyl-benzyl)-piperidin-4-yl]-biphenyl-3-yl}-pentanoic acid], the inhibition at 1 µM amounted to 35%.

In turn, `CC(C)CC(C(=O)O)c1cc(-c2ccc(C(F)(F)F)cc2)cc(C2CCC(C(F)(F)F)CN2C)c1` (stereo not drawn) [Example 13, 4-Methyl-2-[5-(1-methyl-5-trifluoromethyl-piperidin-2-yl)-4′-trifluoromethyl-biphenyl-3-yl]-pentanoic acid] gave an inhibition at 1 µM of 30%.

Regarding `CC(C)CCC(c1ccc(C(F)(F)F)cc1)N1CCCC(c2cc(-c3ccc(C(F)(F)F)cc3)cc(C(CC(C)C)C(=O)O)c2)C1` (single isomer, unassigned) [Example 56, (R*) 4-Methyl-2-(5-{1-[4-methyl-1-(4-trifluoromethyl-phenyl)-pentyl]-piperidin-3-yl}-4′-trifluoromethyl-biphenyl-3-yl)-pentanoic acid], at 1 µM the inhibition was 75%.

As for `CC(C)CCN1C(c2cc(-c3ccc(C(F)(F)F)cc3)cc(C(F)(CC(C)C)C(=O)O)c2)CCCC1C(F)(F)F` (stereo not drawn) [Example 16, 2-Fluoro-4-methyl-2-{5-[1-(3-methyl-butyl)-6-trifluoromethyl-piperidin-2-yl]-4′-trifluoromethyl-biphenyl-3-yl}-pentanoic acid], the inhibition at 1 µM was 0%.

`CC(C)C[C@H](C(=O)O)c1cc(-c2ccc(C(F)(F)F)cc2)cc([C@H]2CC[C@@H](C(F)(F)F)NC2)c1` (single isomer, unassigned) [Example 36, 4-Methyl-2-[4′-trifluoromethyl-5-(6-trifluoromethyl-piperidin-3-yl)-biphenyl-3-yl]-pentanoic acid] returned an inhibition at 1 µM of 40%.

`CC(C)CC(C(=O)O)c1cc(-c2ccc(C(F)(F)F)cc2)cc(C2CCCN(c3ccccc3)C2)c1` (stereo not drawn) [Example 58, 4-Methyl-2-[5-(1-phenyl-piperidin-3-yl)-4′-trifluoromethyl-biphenyl-3-yl]-pentanoic acid] showed an inhibition at 1 µM of 40%.

The compound `CC(C)CCC(c1ccc(C(F)(F)F)cc1)N1CCC(c2cc(-c3ccc(C(F)(F)F)cc3)cc(C(CC(C)C)C(=O)O)c2)CC1` (stereo not drawn) [Example 71, 4-Methyl-2-(5-{1-[4-methyl-1-(4-trifluoromethyl-phenyl)-pentyl]-piperidin-4-yl}-4′-trifluoromethyl-biphenyl-3-yl)-pentanoic acid] yielded an inhibition at 1 µM of 51%.

Regarding `CC(C)CC(C(=O)O)c1cc(-c2ccc(C(F)(F)F)cc2)cc(C2CCC(C(F)(F)F)N(Cc3cccc(C(F)(F)F)c3)C2)c1` (stereo not drawn) [Example 28, 4-Methyl-2-{4′-trifluoromethyl-5-[6-trifluoromethyl-1-(3-trifluoromethyl-benzyl)-piperidin-3-yl]-biphenyl-3-yl}-pentanoic acid], the inhibition at 1 µM was found to be 68%.

Take `CC(C)CC(C(=O)O)c1cc(-c2ccc(C(F)(F)F)cc2)cc(C2CCCN(Cc3ccc(-n4cccc4)cc3)C2)c1` (stereo not drawn) [Example 44, 4-Methyl-2-{5-[1-(4-pyrrol-1-yl-benzyl)-piperidin-3-yl]-4′-trifluoromethyl-biphenyl-3-yl}-pentanoic acid]: the inhibition at 1 µM came to 46%.

`CCC(CC)N1CCCC(c2cc(-c3ccc(C(F)(F)F)cc3)cc(C(CC(C)C)C(=O)O)c2)C1` (stereo not drawn) [Example 33, 2-{5-[1-(1-Ethyl-propyl)-piperidin-3-yl]-4′-trifluoromethyl-biphenyl-3-yl}-4-methyl-pentanoic acid] had an inhibition at 1 µM of 22%.

`CC(C)CC(C(=O)O)c1cc(-c2ccc(C(F)(F)F)cc2)cc(N2CCNCC2)c1` (stereo not drawn) [Example 82, 4-Methyl-2-(5-piperazin-1-yl-4′-trifluoromethyl-biphenyl-3-yl)-pentanoic acid] gave an inhibition at 1 µM of 5%.

`CC(C)CC(C(=O)O)c1cc(-c2ccc(C(F)(F)F)cc2)cc(C2CCN(c3ccc(C(F)(F)F)cc3)CC2)c1` (stereo not drawn) [Example 72, 4-Methyl-2-{4′-trifluoromethyl-5-[1-(4-trifluoromethyl-phenyl)-piperidin-4-yl]-biphenyl-3-yl}-pentanoic acid] showed an inhibition at 1 µM of 6%.

As to `CC(C)CC(C(=O)O)c1cc(-c2ccc(C(F)(F)F)cc2)cc(C2CCC(C(F)(F)F)CN2)c1` (stereo not drawn) [Example 23, 4-Methyl-2-[4′-trifluoromethyl-5-(5-trifluoromethyl-piperidin-2-yl)-biphenyl-3-yl]-pentanoic acid], at 1 µM the inhibition was 30%.

On to `CC(C)CC(C(=O)O)c1cc(-c2ccc(C(F)(F)F)cc2)cc(C2CCCN(Cc3ccc4nnsc4c3)C2)c1` (stereo not drawn) [Example 49, 2-[5-(1-Benzo[1,2,3]thiadiazol-6-ylmethyl-piperidin-3-yl)-4′-trifluoromethyl-biphenyl-3-yl]-4-methyl-pentanoic acid], for which the inhibition at 1 µM is 54%.

`CC(C)CCN1C(c2cc(-c3ccc(C(F)(F)F)cc3)cc(C(F)(F)C(=O)O)c2)CCCC1C(F)(F)F` (stereo not drawn) [Example 22, Difluoro-{5-[1-(3-methyl-butyl)-6-trifluoromethyl-piperidin-2-yl]-4′-trifluoromethyl-biphenyl-3-yl}-acetic acid] showed an inhibition at 1 µM of 35%.

`COCCCC1CCCCN1c1cc(-c2ccc(C(F)(F)F)cc2)cc([C@@H](CC(C)C)C(=O)O)c1` (stereo partly drawn) [Example 60, (R)-2-{5-[2-(3-Methoxy-propyl)-piperidin-1-yl]-4′-trifluoromethyl-biphenyl-3-yl}-4-methyl-pentanoic acid]: the inhibition at 1 µM was determined as 52%.

Take `CC(C)CC(C(=O)O)c1cc(-c2ccc(C(F)(F)F)cc2)cc(C2CCN(Cc3cc(F)cc(C(F)(F)F)c3)CC2)c1` (stereo not drawn) [Example 70, 2-{5-[1-(3-Fluoro-5-trifluoromethyl-benzyl)-piperidin-4-yl]-4′-trifluoromethyl-biphenyl-3-yl}-4-methyl-pentanoic acid]: 1 µM produced 47% inhibition.

Compound `CC(C)CC(C(=O)O)c1cc(-c2ccc(C(F)(F)F)cc2)cc(C2CCCN(c3ccc(C(F)(F)F)cc3)C2)c1` (stereo not drawn) [Example 59, 4-Methyl-2-{4′-trifluoromethyl-5-[1-(4-trifluoromethyl-phenyl)-piperidin-3-yl]-biphenyl-3-yl}-pentanoic acid] gave an inhibition at 1 µM of 37%.

On to `CC(C)CC(C(=O)O)c1cc(-c2ccc(C(F)(F)F)cc2)cc(C2CCCN(Cc3ccccc3)C2)c1` (stereo not drawn) [Example 67, 2-[5-(1-Benzyl-piperidin-3-yl)-4′-trifluoromethyl-biphenyl-3-yl]-4-methyl-pentanoic acid], for which the inhibition at 1 µM was 49%.

The compound `Cc1ccccc1CC1CCCCN1c1cc(-c2ccc(C(F)(F)F)cc2)cc(C(CC(C)C)C(=O)O)c1` (stereo not drawn) [Example 83, 4-Methyl-2-{5-[2-(2-methyl-benzyl)-piperidin-1-yl]-4′-trifluoromethyl-biphenyl-3-yl}-pentanoic acid] showed an inhibition at 1 µM of 44%.

The compound `CC(C)CC(C(=O)O)c1cc(-c2ccc(C(F)(F)F)cc2)cc(C2CCCN(C(c3ccccc3)c3ccccc3)C2)c1` (stereo not drawn) [Example 54, 2-[5-(1-Benzhydryl-piperidin-3-yl)-4′-trifluoromethyl-biphenyl-3-yl]-4-methyl-pentanoic acid] had an inhibition at 1 µM of 80%.

As to `CC(C)CCN1CCC(c2cc(-c3ccc(C(F)(F)F)cc3)cc(C(CC(C)C)C(=O)O)c2)CC1` (stereo not drawn) [Example 76, 4-Methyl-2-{5-[1-(3-methyl-butyl)-piperidin-4-yl]-4′-trifluoromethyl-biphenyl-3-yl}-pentanoic acid], 1 µM produced 11% inhibition.

With `CC(C)CC(C(=O)O)c1cc(-c2ccc(C(F)(F)F)cc2)cc(C2CCNCC2)c1` (stereo not drawn) [Example 68, 4-Methyl-2-(5-piperidin-4-yl-4′-trifluoromethyl-biphenyl-3-yl)-pentanoic acid], the inhibition at 1 µM was found to be 2%.

Turning to `CC(C)CC(C(=O)O)c1cc(-c2ccc(C(F)(F)F)cc2)cc(C2CCCN(S(=O)(=O)c3cccc4cnccc34)C2)c1` (stereo not drawn) [Example 41, 2-{5-[1-(Isoquinoline-5-sulfonyl)-piperidin-3-yl]-4′-trifluoromethyl-biphenyl-3-yl}-4-methyl-pentanoic acid], the inhibition at 1 µM came to 70%.

Compound `CC(C)CC(C(=O)O)c1cc(-c2ccc(C(F)(F)F)cc2)cc(C2CCCC(C)N2)c1` (stereo not drawn) [Example 6, 4-Methyl-2-[5-(6-methyl-piperidin-2-yl)-4′-trifluoromethyl-biphenyl-3-yl]-pentanoic acid] registered an inhibition at 1 µM of 0%.

For `CC(C)CC(C(=O)O)c1cc(-c2ccc(C(F)(F)F)cc2)cc(N2CCN(c3ccc(F)c(F)c3)CC2)c1` (stereo not drawn) [Example 79, 2-{5-[4-(3,4-Difluoro-phenyl)-piperazin-1-yl]-4′-trifluoromethyl-biphenyl-3-yl}-4-methyl-pentanoic acid], testing at 1 µM gave an inhibition of 28%.

Turning to `CCC1CCCCN1c1cc(-c2ccc(C(F)(F)F)cc2)cc(C(CC(C)C)C(=O)O)c1` (stereo not drawn) [Example 2, 2-[5-(2-Ethyl-piperidin-1-yl)-4′-trifluoromethyl-biphenyl-3-yl]-4-methyl-pentanoic acid], the inhibition at 1 µM was determined as 45%.

Compound `CC(C)CC(C(=O)O)c1cc(-c2ccc(C(F)(F)F)cc2)cc(N2CCCCC2C)c1` (stereo not drawn) [Example 3, 4-Methyl-2-[5-(2-methyl-piperidin-1-yl)-4′-trifluoromethyl-biphenyl-3-yl]-pentanoic acid] showed an inhibition at 1 µM of 23%.

Turning to `CC(C)CC(C(=O)O)c1cc(-c2ccc(C(F)(F)F)cc2)cc(C2CCCN(Cc3cc(C(F)(F)F)cc(C(F)(F)F)c3)C2)c1` (stereo not drawn) [Example 53, 2-{5-[1-(3,5-Bis-trifluoromethyl-benzyl)-piperidin-3-yl]-4′-trifluoromethyl-biphenyl-3-yl}-4-methyl-pentanoic acid], the inhibition at 1 µM stood at 57%.

The record behind these values is patent US8252935B2, “Piperidinyl and piperazinyl modulators of γ-secretase” (Janssen Pharmaceutica N.V., priority 2007, dated 2012).
